Drawing on PubChem BioAssay (NCI), this text covers TGI for 7 compounds.

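Exposure lasted 48 hours, with cells grown in 96-well plates and compounds tested at five concentrations. TGI: total growth inhibition.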 Bounds are passed on as bounds.

Holding throughout (assay): NCI anticancer screen, dose series, 48 h
Assay [1] concerns K-562 leukemia.
In assay [2] the test system is 786-0 renal.
Assay [3] relates to SF-539 CNS.
Assay [4] has as its system HOP-92 NSCLC.
For assay [5], the system named is SNB-19 CNS.
The test system of assay [6] is NCI-H226 lung.
For assay [7], the system named is NCI/ADR-RES ovarian.
Assay [8] has as its system OVCAR-3 ovarian.
Assay [9] deals with KM12 colon.
Assay [10] has as its system UO-31 renal.
Assay [11] relates to RXF 393 renal.
Assay [12] deals with A498 renal.
The test system of assay [13] is NCI-H460 lung.
The test system of assay [14] is MDA-MB-231 breast.
Assay [15] relates to UACC-257 melanoma.
The subject of assay [16] is SF-295 CNS.
For assay [17], the system named is MDA-N.
Assay [18] deals with HOP-62 NSCLC.
Assay [19] deals with LOX IMVI melanoma.
Assay [20] deals with HS 578T breast.

As for `CCOC(=O)c1ccc(NCc2ccc3oc(=O)c(-c4ccccc4)nc3c2)cc1`, the TGI in assay [1] is 85.8 µM; in [2] it was above 100 µM; in assay [3], above 100 µM; in assay [4] it was 83 µM; in [5], above 100 µM; in [6] it was above 100 µM. Also, the TGI is above 100 µM in [7]; 90.5 µM in assay [8]; above 100 µM in assay [9]; above 100 µM in assay [10]; 87.4 µM in assay [11]; above 100 µM in [12]. The TGI in [13] was above 100 µM; in assay [14], above 100 µM; in assay [15] it was 42 µM; in [16] it was above 100 µM; in [17], 50.8 µM; in [18] it was above 100 µM. This compound yielded a TGI in [19] above 100 µM.

As to `Nc1ccc(Cc2c(N)[nH]c(=O)[nH]c2=O)cc1`, the TGI in assay [1], in [2], in assay [3], in [4], in [5] and in assay [6] was above 100 µM in each case. In addition, the TGI in assay [7], in assay [8], in assay [20], in [10], in assay [12] and in [13] was above 100 µM in each case. In addition, the TGI in [14], in assay [15], in assay [16], in assay [17] and in [19] was above 100 µM each time.

As for `CC(CC[C@@]1(C)C(=O)CCC2O[C@]21C)[C@H]1C[C@@H](c2ccoc2)OC1=O` (some centres not stated), the TGI in [1] was 51 µM; in [2], 63.1 µM; in assay [3], 69.1 µM; in assay [4], 86.9 µM; in assay [5], above 100 µM; in assay [6], above 100 µM. The TGI in assay [7] is above 100 µM; in assay [8], 66.1 µM; in assay [20], above 100 µM; in assay [9], above 100 µM; in [10], 35.2 µM; in assay [11], 39.8 µM. The TGI in assay [12], in [13], in [15], in [16], in [17] and in assay [18] was above 100 µM throughout. In [19], this compound showed a TGI of 48.2 µM.

`N#Cc1[nH]c(=O)n(-c2ccccc2)c1N`: the TGI in [1], in assay [2], in assay [3], in assay [5], in [6] and in assay [7] was above 10 µM in each case. Besides, the TGI in assay [8], in assay [20], in assay [9], in assay [10], in assay [11] and in assay [12] was above 10 µM in each case. The TGI in assay [13] is above 10 µM; in [14], above 10 µM; in assay [15], above 10 µM; in [16], 3.72 µM; in assay [17], above 10 µM; in assay [18], above 10 µM. For the same compound, the TGI in [19] was found to be 1.58 µM.

Regarding `CSc1cc(Cl)c(C)cc1S(=O)(=O)NC(=O)NNc1cccc(C(F)(F)F)n1`, the TGI in [1], in assay [2], in [3], in assay [5], in assay [6] and in assay [7] was above 100 µM in each case. Also, the TGI in assay [8], in [20], in [9], in [11], in assay [12] and in assay [13] was above 100 µM each time. The TGI in assay [14], in assay [16], in assay [17], in assay [18] and in assay [19] was above 100 µM in each case.

`CC(=O)OC1C(Oc2c(C)cc3c(c2O)[C@@H](C)CC[C@@H]3[C@@H](C)CCC=C(C)C)OCC(O)C1O` (some centres not stated): the TGI came to 39.5 µM in assay [1]; 32.8 µM in assay [2]; 34.7 µM in [3]; 35.1 µM in assay [5]; 40.6 µM in assay [6]; 40.6 µM in assay [7]. Besides, the TGI in assay [8] amounted to 29.8 µM; in [20], 47.4 µM; in [9], 31.2 µM; in [10] it was 32.2 µM; in assay [12] it was 36.5 µM; in [13] it was 33.2 µM. For the same compound, the TGI in [14] was 38.7 µM; in assay [15], 35.6 µM; in assay [16] it was 35.3 µM; in [17], 36 µM; in assay [18] it was 32.2 µM; in assay [19], 32.5 µM.

Consider `Nc1nc(-[n+]2ccc(-c3ccncc3)cc2)nc(Cl)c1Cl`, for which the TGI in assay [1] is 91.7 µM; in [2], 57.9 µM; in assay [3] it was 68.1 µM; in assay [4], 48 µM; in assay [5] it was above 100 µM; in assay [6], above 100 µM. In addition, the TGI in assay [7] is above 100 µM; in [8] it was 33.5 µM; in assay [9], above 100 µM; in [10], above 100 µM; in [11], 32.8 µM; in assay [12] it was above 100 µM. The TGI in assay [13] is above 100 µM; in [14], 95.9 µM; in assay [15] it was 40.8 µM; in assay [17], above 100 µM; in assay [18], above 100 µM; in [19] it was 33.2 µM.
